Results: US20160242416A1, “FUNGICIDAL ISOXAZOLINE CARBINOLS” (E I DU PONT DE NEMOURS AND COMPANY, priority 2015, published 2016)

Experiments:
[1] = system: Stagonospora nodorum; assay: Test D: wheat glume blotch, preventive spray on wheat seedlings; settings: 100 = 100% disease control; for Test D rating (% disease control): 10 ppm, wheat glume blotch, 0 = no control; for Test D disease control rating: 10 ppm test solution, 0 = no control relative to controls
[2] = system: Erysiphe graminis f sp. tritici; assay: Test G: wheat powdery mildew, preventive spray on wheat seedlings; settings: 100 = 100% disease control; for Test G rating (% disease control): 10 ppm, wheat powdery mildew, 0 = no control; for Test G disease control rating: 10 ppm test solution, 0 = no control relative to controls
[3] = system: Zymoseptoria tritici; assay: Test E: wheat leaf blotch, preventive spray on wheat seedlings; settings: 100 = 100% disease control; for Test E rating (% disease control): 10 ppm, wheat leaf blotch, 0 = no control; for Test E disease control rating: 10 ppm test solution, 0 = no control relative to controls
[4] = system: Botrytis cinerea; assay: Test B: gray mold, preventive spray on tomato seedlings; settings: 100 = 100% disease control; for Test B rating (% disease control): 10 ppm, gray mold on tomato, 0 = no control; for Test B disease control rating: 10 ppm test solution, 0 = no control relative to controls
[5] = system: Puccinia recondita f sp. tritici; assay: Test F: wheat leaf rust, preventive spray on wheat seedlings; settings: 100 = 100% disease control; for Test F rating (% disease control): 10 ppm, wheat leaf rust, 0 = no control; for Test F disease control rating: 10 ppm test solution, 0 = no control relative to controls

## OC(Cn1cncn1)(C1=NOC(c2ccc(Cl)cc2)C1)c1ccc(Oc2ccccc2)cc1 (mixture of isomers) [Compound 152]
[1]
  Test D rating (% disease control): 0%
[2]
  Test G rating (% disease control): 87%
[3]
  Test E rating (% disease control): 34%
[4]
  Test B rating (% disease control): 0%
[5]
  Test F rating (% disease control): 50%

## OC(Cn1cncn1)(C1=NOC(c2ccc(-n3cc(Br)cn3)cc2)C1)c1ccc(Cl)cc1 (single isomer, unassigned) [Compound 5]
[1]
  Test D rating (% disease control): 40%
[2]
  Test G rating (% disease control): 100%
[3]
  Test E rating (% disease control): 48%
[4]
  Test B rating (% disease control): 0%
[5]
  Test F rating (% disease control): 100%

## OC(Cn1cncn1)(C1=NOC(c2ccc(-n3cc(Br)cn3)cc2)C1)c1ccc(Cl)cc1 (single isomer, unassigned) [Compound 6]
[1]
  Test D rating (% disease control): 0%
[2]
  Test G rating (% disease control): 91%
[3]
  Test E rating (% disease control): 0%
[4]
  Test B rating (% disease control): 0%
[5]
  Test F rating (% disease control): 0%

## CC(C)(C)C(O)(Cn1cncn1)C1=NOC(c2ccc(-n3cc(Br)cn3)cc2)C1 (single isomer, unassigned) [Compound 7]
[1]
  Test D rating (% disease control): 0%
[2]
  Test G rating (% disease control): 100%
[3]
  Test E rating (% disease control): 14%
[4]
  Test B rating (% disease control): 99%
[5]
  Test F rating (% disease control): 100%

## CC(C)(C)C(O)(Cn1cncn1)C1=NOC(c2ccc(-n3cc(Br)cn3)cc2)C1 (single isomer, unassigned) [Compound 8]
[1]
  Test D rating (% disease control): 0%
[2]
  Test G rating (% disease control): 100%
[3]
  Test E rating (% disease control): 0%
[4]
  Test B rating (% disease control): 0%
[5]
  Test F rating (% disease control): 0%

## CC(C)(C)C(O)(Cn1cncn1)C1=NOC(CO[Si](C)(C)C(C)(C)C)C1 (single isomer, unassigned) [Compound 9]
[1]
  Test D rating (% disease control): 0%
[2]
  Test G rating (% disease control): 64%
[3]
  Test E rating (% disease control): 0%
[4]
  Test B rating (% disease control): 0%
[5]
  Test F rating (% disease control): 0%

## CC(C)(C)C(O)(Cn1cncn1)C1=NOC(CO[Si](C)(C)C(C)(C)C)C1 (single isomer, unassigned) [Compound 10]
[1]
  Test D rating (% disease control): 0%
[2]
  Test G rating (% disease control): 13%
[3]
  Test E rating (% disease control): 0%
[4]
  Test B rating (% disease control): 0%
[5]
  Test F rating (% disease control): 19%

## CCC(C)(C)C(O)(Cn1cncn1)C1=NOC(COc2ccc(Br)cc2)C1 (single isomer, unassigned) [Compound 11]
[1]
  Test D rating (% disease control): 100%
[2]
  Test G rating (% disease control): 99%
[3]
  Test E rating (% disease control): 88%
[4]
  Test B rating (% disease control): 81%
[5]
  Test F rating (% disease control): 100%

## CCC(C)(C)C(O)(Cn1cncn1)C1=NOC(COc2ccc(Br)cc2)C1 (single isomer, unassigned) [Compound 12]
[1]
  Test D rating (% disease control): 68%
[2]
  Test G rating (% disease control): 96%
[3]
  Test E rating (% disease control): 57%
[4]
  Test B rating (% disease control): 0%
[5]
  Test F rating (% disease control): 99%

## CC(C)(C)C(O)(Cn1cncn1)C1=NOC(CCc2ccc(C(F)(F)F)cc2)C1 (single isomer, unassigned) [Compound 13]
[1]
  Test D rating (% disease control): 100%
[2]
  Test G rating (% disease control): 100%
[3]
  Test E rating (% disease control): 98%
[4]
  Test B rating (% disease control): 0%
[5]
  Test F rating (% disease control): 100%

## OC(Cn1cncn1)(C1=NOC(COc2ccccc2)C1)c1ccc(Cl)cc1 (single isomer, unassigned) [Compound 145]
[2]
  Test G rating (% disease control): 88%
[3]
  Test E rating (% disease control): 28%
[4]
  Test B rating (% disease control): 0%

## OC(Cn1cncn1)(C1=NOC(COc2ncc(Cl)cn2)C1)c1ccc(Cl)cc1 (single isomer, unassigned) [Compound 166]
[1]
  Test D rating (% disease control): 0%
[3]
  Test E rating (% disease control): 0%
[4]
  Test B rating (% disease control): 0%
[5]
  Test F rating (% disease control): 41%

## OC(Cn1cncn1)(C1=NOC(COc2ncc(Cl)cn2)C1)c1ccc(Cl)cc1 (single isomer, unassigned) [Compound 167]
[1]
  Test D rating (% disease control): 0%
[3]
  Test E rating (% disease control): 0%
[4]
  Test B rating (% disease control): 0%
[5]
  Test F rating (% disease control): 98%

## CC1(COc2ccc(Cl)cc2)CC(C(O)(Cn2cncn2)C(C)(C)C)=NO1 (single isomer, unassigned) [Compound 216]
[1]
  Test D disease control rating: 86%
[3]
  Test E disease control rating: 0%
[4]
  Test B disease control rating: 0%
[5]
  Test F disease control rating: 100%

## CC1(COc2ccc(Cl)cc2)CC(C(O)(Cn2cncn2)C(C)(C)C)=NO1 (single isomer, unassigned) [Compound 217]
[1]
  Test D disease control rating: 92%
[3]
  Test E disease control rating: 0%
[4]
  Test B disease control rating: 0%
[5]
  Test F disease control rating: 100%

## CC1(COc2ccc(Cl)cc2)CC(C(O)(Cn2cncn2)c2ccc(Cl)cc2)=NO1 (single isomer, unassigned) [Compound 218]
[1]
  Test D disease control rating: 21%
[3]
  Test E disease control rating: 0%
[4]
  Test B disease control rating: 0%
[5]
  Test F disease control rating: 100%

## CC1(COc2ccc(Cl)cc2)CC(C(O)(Cn2cncn2)c2ccc(Cl)cc2)=NO1 (single isomer, unassigned) [Compound 219]
[1]
  Test D disease control rating: 0%
[3]
  Test E disease control rating: 0%
[4]
  Test B disease control rating: 0%
[5]
  Test F disease control rating: 95%

## CC(C)(C)C(O)(Cn1cncn1)C1=NOC(COCc2ccc(Cl)cc2)C1 (single isomer, unassigned) [Compound 263]
[1]
  Test D disease control rating: 99%
[2]
  Test G disease control rating: 99%
[3]
  Test E disease control rating: 0%
[5]
  Test F disease control rating: 87%

## CC(C)(C)C(O)(Cn1cncn1)C1=NOC(COCc2ccc(Cl)cc2)C1 (single isomer, unassigned) [Compound 264]
[1]
  Test D disease control rating: 0%
[2]
  Test G disease control rating: 99%
[3]
  Test E disease control rating: 0%
[5]
  Test F disease control rating: 0%

## OC(Cn1cncn1)(C1=NOC(COc2ccc(Cl)cc2)C1)C1CCCCC1 (single isomer, unassigned) [Compound 265]
[1]
  Test D disease control rating: 99%
[2]
  Test G disease control rating: 100%
[3]
  Test E disease control rating: 1%
[5]
  Test F disease control rating: 100%

## OC(Cn1cncn1)(C1=NOC(COc2ccc(Cl)cc2)C1)C1CCCCC1 (single isomer, unassigned) [Compound 266]
[1]
  Test D disease control rating: 100%
[2]
  Test G disease control rating: 100%
[3]
  Test E disease control rating: 0%
[5]
  Test F disease control rating: 100%

## CC(C)CC(O)(Cn1cncn1)C1=NOC(COc2ccc(Cl)cc2)C1 (single isomer, unassigned) [Compound 267]
[1]
  Test D disease control rating: 100%
[2]
  Test G disease control rating: 100%
[3]
  Test E disease control rating: 3%
[5]
  Test F disease control rating: 100%

## CC(C)CC(O)(Cn1cncn1)C1=NOC(COc2ccc(Cl)cc2)C1 (single isomer, unassigned) [Compound 268]
[1]
  Test D disease control rating: 82%
[2]
  Test G disease control rating: 95%
[3]
  Test E disease control rating: 0%
[5]
  Test F disease control rating: 100%

## CC(C)(C)C(O)(Cn1cncn1)C1=NOC(CCOc2ccc(F)cc2)C1 (single isomer, unassigned) [Compound 269]
[1]
  Test D disease control rating: 99%
[2]
  Test G disease control rating: 100%
[3]
  Test E disease control rating: 73%
[5]
  Test F disease control rating: 100%

## CC(C)(C)C(O)(Cn1cncn1)C1=NOC(CCOc2ccc(F)cc2)C1 (single isomer, unassigned) [Compound 270]
[1]
  Test D disease control rating: 99%
[2]
  Test G disease control rating: 100%
[3]
  Test E disease control rating: 75%
[5]
  Test F disease control rating: 100%

## CC#CC(O)(Cn1cncn1)C1=NOC(c2ccc(Cl)cc2)C1 (stereo not drawn) [Compound 103, α-[5-(4-chlorophenyl)-4,5-dihydro-3-isoxazolyl]-α-1-propyn-1-yl-1H-1,2,4-triazole-1-ethanol]
[2]
  Test G rating (% disease control): 92%
[3]
  Test E rating (% disease control): 0%
[4]
  Test B rating (% disease control): 0%
[5]
  Test F rating (% disease control): 94%

## CC(C)(C)C(O)(Cn1cnnn1)C1=NOC(COc2ccc(Cl)cc2)C1 (centres unmarked) [Compound 246]
[1]
  Test D disease control rating: 98%
[2]
  Test G disease control rating: 95%
[3]
  Test E disease control rating: 0%
[5]
  Test F disease control rating: 100%

## CC(C)(C)C(O)(Cn1cnnn1)C1=NOC(COc2ccc(Cl)cc2)C1 (centres unmarked) [Compound 247]
[1]
  Test D disease control rating: 0%
[2]
  Test G disease control rating: 0%
[3]
  Test E disease control rating: 24%
[5]
  Test F disease control rating: 97%

## OC(Cn1cncn1)(Cn1cncn1)C1=NOC(COc2ccc(Cl)cc2)C1 (centres unmarked) [Compound 248]
[1]
  Test D disease control rating: 0%
[2]
  Test G disease control rating: 98%
[3]
  Test E disease control rating: 0%
[5]
  Test F disease control rating: 100%

## OC(COc1ccc(Cl)cc1)(Cn1cncn1)C1=NOC(COc2ccc(Cl)cc2)C1 (centres unmarked) [Compound 271]
[1]
  Test D disease control rating: 42%
[2]
  Test G disease control rating: 92%
[3]
  Test E disease control rating: 2%
[5]
  Test F disease control rating: 100%

## OC(COc1ccc(Cl)cc1)(Cn1cncn1)C1=NOC(c2ccc(Cl)cc2)C1 (centres unmarked) [Compound 272]
[1]
  Test D disease control rating: 69%
[2]
  Test G disease control rating: 99%
[3]
  Test E disease control rating: 0%
[5]
  Test F disease control rating: 100%

## OC(COc1ccc(Cl)cc1)(Cn1cncn1)C1=NOC(c2ccc(Cl)cc2)C1 (centres unmarked) [Compound 273]
[1]
  Test D disease control rating: 11%
[2]
  Test G disease control rating: 69%
[3]
  Test E disease control rating: 2%
[5]
  Test F disease control rating: 98%
